This is an account of results in patent publication US20130071357A1, “IDENTIFICATION, PROLIFERATION IN SITU, HARVESTING, SEPARATION, AND TRANSPLANTATION OF ADULT-DERIVED REGENERATIVE PLURIPOTENT TRANSITIONAL BLASTOMERE-LIKE STEM CELLS AND METHODS OF TREATMENT THEREOF” (HEYGEN, LLC, priority 2011, published 2013).

Converted amounts (≈) assume the structure as drawn.

Broadly, the solubility is how much of the substance goes into solution per volume.

Data set [1] in a line: solubility of dexamethasone. It counts as physicochemical. On the procedure: Dexamethasone solution, pH 7.4: This is typically made up in absolute ethanol (EtOH) because it is not soluble in water or media. Weigh out 0.039 gm of Dexamethasone (Dex, catalog #D-1756, Sigma) and add to 10 ml of absolute EtOH. This will make a 1×10^−2 M stock solution. Store this solution at −20° C. This is the most concentrated solution of Dex that can be made with complete solubility. Add 1 ml of the stock Dex solution made above to 9-ml Opti-MEM I medium with Glutamax. Aliquot 9 ml of this solution as 500 μl quantities in 2 ml cryovials and store at −20° C. Label these tubes as […]. Take the remaining 1 ml of 10^−6M Dex and add to 9 ml of Opti-MEM I medium with Glutamax. Aliquot 9 mls and reserve 1 ml as before. Label these tubes as 1×10^−7M Dex. Take the remaining 1 ml of 10^−7M Dex and add to 9 ml of Opti-MEM I medium with Glutamax. Aliquot 9 mls and reserve 1 ml as before. Label these tubes as 1×10^−8M Dex. Take the remaining 1 ml of 10^−8M Dex and add to 9 ml of Opti-MEM I medium with Glutamax. Aliquot 9 mls and reserve 1 ml as before. Label these tubes as 1×10^−9M Dex. Take the remaining 1 ml of 10^−9M Dex and add to 9 ml of Opti-MEM I medium with Glutamax. Aliquot all 10 mls. Label these tubes as 1×10^−10M Dex. These aliquots will bring 500 mls of media to the concentration of Dex labeled on the tube. Store the cryovials at −20° C.

The test system of data set [2] is adult-derived regenerative pluripotent transitional blastomere-like stem cells. The data set can be described thus: differentiation of Tr-BLSCs after exposure to dexamethasone. It counts as cell-based. To be noted: extended exposure to a range of dexamethasone concentrations. From the text:
After extended exposure to a range of dexamethasone concentrations, adult-derived regenerative pluripotent transitional blastomere-like stem cells differentiated into more than 50 discrete cell types.

In data set [3] the test system is adult totipotent blastomeric-like stem cells. As to the kind of experiment: induction of blastomeric-like stem cells in culture. It counts as cell-based, rat. To be noted: for response to progression agents: lineage-uncommitted BLSCs. The text has this: 1961; Rohme 1981; Young and Black, 2005a].
FIG. 7. Blastomeric-like stem cells (BLSCs) harvested from male Sprague-Dawley out bred rat 0001 and propagated from a single cell derived by serial dilution clonogenic analysis, then genomically labeled with LacZ to synthesize the beta-galactosidase gene product. Clone designated as Scl-44beta. […] B-L is phase contrast microscopy to show unstained cells in field of view. […] Original magnification 200×.
FIG. 8. Blastomeric-like stem cells (BLSCs) harvested from male Sprague-Dawley out bred rat 0001 and propagated from a single cell derived by serial dilution clonogenic analysis, then genomically labeled with LacZ to synthesize the beta-galactosidase gene product. Clone designated as Scl-44beta.

For data set [4], the system named is adult pluripotent epiblast-like stem cells. As to the kind of experiment: induction of epiblast-like stem cells in culture. It counts as cell-based, rat. Conditions: for response to progression agents: lineage-uncommitted ELSCs.

As for `C[C@@H]1C[C@H]2[C@@H]3CCC4=CC(=O)C=C[C@]4(C)[C@@]3(F)[C@@H](O)C[C@]2(C)[C@@]1(O)C(=O)CO` [dexamethasone, Dexamethasone], in data set [1], the “solubility in water or media” value is listed as “not soluble”. For the same compound, the solubility in data set [1] (absolute ethanol, organic solvent or mixture, thermodynamic from solid, absolute EtOH, read-out: most concentrated solution with complete solubility) was 10 mM (≈ 3920 µg/mL). For the same compound, in data set [2], the “discrete cell types formed” value was “more than 50 discrete cell types”.
IGF-I: progression agent: the “response to progression agents” value in data set [3] and in data set [4] was “unresponsive” in each case.
In the case of IGF-II: progression agent, the “response to progression agents” value in data set [3] and in data set [4] was “unresponsive” throughout.
Regarding “hepatocyte growth factor: lineage-induction agent”, the “response to lineage-induction agent” value in data set [3] (BLSCs) and in data set [4] (ELSCs) was “forming cells belonging to the endodermal lineage” each time.
Regarding insulin: progression agent, the “induction in the presence of insulin” value in data set [3] (clone Scl-44beta, insulin at 2 micrograms per ml, absence of inhibitors) was “no induction occurs”. For the same compound, the “response to progression agents” value in data set [3] and in data set [4] was “unresponsive” each time.
